Laboratory results reported in patent US20250296959A1, “B7-H3 TARGETING PEPTIDES AND CONSTRUCTS THEREOF” (Mariana Oncology Inc., priority 2024, published 2025).
Starred links: 1 amine or outer side, 2 acyl side, 3 side chain; linkers in the order of their positions; H or OH if unused. Positions of bridges follow the written chain, without caps; N, C: chain ends. Non-standard residues stand in square brackets, D forms with d. Residues, ends and D or L forms follow the SMILES beside them. Groups on a side chain read outwards from the residue. *: point of attachment. Ala(piperidin-4-yl) = O=C([C@H](CC1CCN([*:3])CC1)N[*:1])[*:2]; DOTA = O=C(O)CN1CCN(CC(=O)O)CCN(CC(=O)*)CCN(CC(=O)O)CC1; Tyr(SO2F) = N[C@@H](Cc1ccc(OS(=O)(=O)F)cc1)C(=O)O; Trp(5-F) = N[C@@H](Cc1c[nH]c2ccc(F)cc12)C(=O)O; X15 = CC(=O)N1CCC(C[C@H](N[*:1])C(=O)[*:2])CC1; X1 = C[C@@H](c1ccccc1)[C@H](N[*:1])C(=O)[*:2]; γGlu = O=C(O)[C@H](CCC(=O)[*:2])N[*:1]; 1Nal = N[C@@H](Cc1cccc2ccccc12)C(=O)O; Ala(4-THP) = N[C@@H](CC1CCOCC1)C(=O)O; Val(3-OH) = CC(C)(O)[C@H](N)C(=O)O; 4Pal = N[C@@H](Cc1ccncc1)C(=O)O; Cha = N[C@@H](CC1CCCCC1)C(=O)O; Chg = N[C@H](C(=O)O)C1CCCCC1; PEG4 = NCCOCCOCCOCCOCCC(=O)O; Tle = CC(C)(C)[C@H](N)C(=O)O; hLeu = CC(C)CC[C@H](N)C(=O)O; NMeS = CN[C@@H](CO)C(=O)O; Nle = CCCC[C@H](N)C(=O)O; Orn = NCCC[C@H](N)C(=O)O; Nva = CCC[C@H](N)C(=O)O

Target: T1, human 4lg B7-H3 (Homo sapiens, UniProt Q5ZPR3)
T1 sequence (Q5ZPR3 29-534): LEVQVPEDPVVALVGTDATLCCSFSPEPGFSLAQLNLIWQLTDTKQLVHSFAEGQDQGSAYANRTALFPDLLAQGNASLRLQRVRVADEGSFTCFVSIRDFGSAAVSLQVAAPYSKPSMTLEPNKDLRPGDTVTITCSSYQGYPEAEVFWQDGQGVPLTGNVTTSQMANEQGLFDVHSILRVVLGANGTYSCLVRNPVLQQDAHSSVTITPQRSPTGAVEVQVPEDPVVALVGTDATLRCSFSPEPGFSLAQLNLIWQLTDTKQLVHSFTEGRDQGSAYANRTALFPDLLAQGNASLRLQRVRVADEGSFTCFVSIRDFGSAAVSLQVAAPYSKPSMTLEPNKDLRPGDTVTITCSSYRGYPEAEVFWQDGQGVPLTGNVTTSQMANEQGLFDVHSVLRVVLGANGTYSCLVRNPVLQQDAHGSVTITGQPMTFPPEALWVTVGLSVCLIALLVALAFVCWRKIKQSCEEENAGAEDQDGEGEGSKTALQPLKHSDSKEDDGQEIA
Assay: Affinity determination by surface plasmon resonance (SPR) to 4Ig B7-H3
Details: not given

| SMILES | Kd [µM] |
| --- | --- |
| CC(=O)N[C@@H](CCC(C)C)C(=O)N[C@@H](Cc1ccc(O)cc1)C(=O)N[C@H]1CSSC[C@@H](C(=O)N[C@@H](Cc2c[nH]c3ccc(F)cc23)C(=O)N[C@@H](Cc2ccccc2)C(=O)N[C@H](C(=O)N[C@H](CCCCNC(=O)CN2CCN(CC(=O)O)CCN(CC(=O)O)CCN(CC(=O)O)CC2)C(=O)O)C(C)(C)O)NC(=O)[C@H](Cc2ccc(OS(=O)(=O)F)cc2)NC(=O)[C@H](C(C)C)NC(=O)[C@H](CC(=O)O)NC(=O)[C@H](CC2CCOCC2)NC(=O)[C@H](CCCCN)NC(=O)CNC(=O)[C@H](C(C)(C)C)NC1=O [Cpd #389, Ac-hLeu-Y-C-Tbg-G-K-ThpA-D-V-FSY-C-5FW-F-hydroxyVal-dLys(DOTA)-COOH] (Ac-[hLeu]YC[Tle]GK[Ala(4-THP)]DV[Tyr(SO2F)]C[Trp(5-F)]F[Val(3-OH)][dK](DOTA)-OH; disulfide 3-11) | < 0.001 |

Same assay, conditions: SPR KD—25° C., 4Ig B7-H3; 25° C. flow cell temperature

| SMILES | Kd [µM] |
| --- | --- |
| CCCC[C@H](NC(C)=O)C(=O)N[C@@H](Cc1ccc(O)cc1)C(=O)N[C@H]1CSSC[C@@H](C(=O)N[C@@H](Cc2c[nH]c3ccccc23)C(=O)N[C@@H](Cc2ccccc2)C(=O)N[C@H](C(=O)N[C@H](CCCCNC(=O)CN2CCN(CC(=O)O)CCN(CC(=O)O)CCN(CC(=O)O)CC2)C(N)=O)[C@@H](C)O)NC(=O)[C@H](Cc2ccc(O)cc2)NC(=O)[C@H](C(C)C)NC(=O)[C@H](CC(=O)O)NC(=O)[C@H](Cc2ccc(O)cc2)NC(=O)[C@H](CCCCNC(C)=O)NC(=O)CNC(=O)[C@H](C(C)C)NC1=O [compound 65, Ac-Nle-Y-C-V-G-Lys(Ac)-Y-D-V-Y-C-W-F-Thr-dLys(DOTA)-CONH2] (Ac-[Nle]YCVGK(Ac)YDVYCWFT[dK](DOTA)-NH2; disulfide 3-11) | 0.01 to 0.1 |
| CC(=O)N[C@@H](CCC(C)C)C(=O)N[C@@H](Cc1ccc(O)cc1)C(=O)N[C@H]1CSSC[C@@H](C(=O)N[C@@H](Cc2c[nH]c3ccc(F)cc23)C(=O)N[C@@H](Cc2ccccc2)C(=O)N[C@H](C(=O)N[C@H](CCCCNC(=O)CN2CCN(CC(=O)O)CCN(CC(=O)O)CCN(CC(=O)O)CC2)C(N)=O)[C@@H](C)O)NC(=O)[C@H](Cc2ccc(O)cc2)NC(=O)[C@H](C2CCCCC2)NC(=O)[C@H](CC(=O)O)NC(=O)[C@H](Cc2ccc(O)cc2)NC(=O)[C@H](CCCCN)NC(=O)CNC(=O)[C@H](C(C)(C)C)NC1=O [compound 181, Ac-hLeu-Y-C-Tbg-G-K-Y-D-Chg-Y-C-5FW-F-Thr-dLys(DOTA)-CONH2] (Ac-[hLeu]YC[Tle]GKYD[Chg]YC[Trp(5-F)]FT[dK](DOTA)-NH2; disulfide 3-11) | 0.001 to 0.01 |
| CCCC[C@H](NC(C)=O)C(=O)N[C@@H](Cc1ccc(O)cc1)C(=O)N[C@H]1CSSC[C@@H](C(=O)N[C@@H](Cc2c[nH]c3ccccc23)C(=O)N[C@@H](CC2CCCCC2)C(=O)N[C@H](C(=O)N[C@H](CCCCNC(=O)CN2CCN(CC(=O)O)CCN(CC(=O)O)CCN(CC(=O)O)CC2)C(N)=O)[C@@H](C)O)NC(=O)[C@H](Cc2ccc(O)cc2)NC(=O)[C@H](C(C)C)NC(=O)[C@H](CC(=O)O)NC(=O)[C@H](Cc2ccc(O)cc2)NC(=O)[C@H](CCCCN)NC(=O)CNC(=O)[C@H](C(C)C)NC1=O [compound 82, Ac-Nle-Y-C-V-G-K-Y-D-V-Y-C-W-ChA-Thr-dLys(DOTA)-CONH2] (Ac-[Nle]YCVGKYDVYCW[Cha]T[dK](DOTA)-NH2; disulfide 3-11) | 0.1 to 0.3 |
| COc1ccc(C[C@@H]2NC(=O)[C@H](C(C)C)NC(=O)[C@H](CC(=O)O)NC(=O)[C@H](Cc3ccc(O)cc3)NC(=O)[C@H](CCCCN)NC(=O)CNC(=O)[C@H](C(C)C)NC(=O)[C@@H](NC(=O)[C@H](Cc3ccc(O)cc3)NC(=O)[C@H](CCC(C)C)NC(C)=O)CSSC[C@@H](C(=O)N[C@@H](Cc3c[nH]c4ccc(F)cc34)C(=O)N[C@@H](Cc3ccccc3)C(=O)N[C@H](C(=O)N[C@H](CCCCNC(=O)CN3CCN(CC(=O)O)CCN(CC(=O)O)CCN(CC(=O)O)CC3)C(N)=O)[C@@H](C)O)NC2=O)cc1 [compound 171, Ac-hLeu-Y-C-V-G-K-Y-D-V-OMeTyr-C-5FW-F-Thr-dLys(DOTA)-CONH2] (Ac-[hLeu]YCVGKYDVY(Me)C[Trp(5-F)]FT[dK](DOTA)-NH2; disulfide 3-11) | < 0.001 |

Other lines, results leading:

| Kd [µM] | SMILES |
| --- | --- |
| 0.001 to 0.01 | CC(=O)N[C@@H](CCC(C)C)C(=O)N[C@@H](Cc1ccc(O)cc1)C(=O)N[C@H]1CSSC[C@@H](C(=O)N[C@@H](Cc2cccc3ccccc23)C(=O)N[C@@H](Cc2ccccc2)C(=O)N2CCC[C@H]2C(=O)N[C@H](CCCCNC(=O)CC[C@H](NC(=O)CC[C@H](NC(=O)CN2CCN(CC(=O)O)CCN(CC(=O)O)CCN(CC(=O)O)CC2)C(=O)O)C(=O)O)C(N)=O)NC(=O)[C@H](Cc2ccc(O)cc2)NC(=O)[C@H](C(C)C)NC(=O)[C@H](CC(=O)O)NC(=O)[C@H](CC2CCOCC2)NC(=O)[C@H](CCCCN)NC(=O)CNC(=O)[C@H](C(C)(C)C)NC1=O [compound 275, Ac-hLeu-Y-C-Tbg-G-K-ThpA-D-V-Y-C-1Nal-F-Pro-dLys(gE-gE-DOTA)-CONH2] (Ac-[hLeu]YC[Tle]GK[Ala(4-THP)]DVYC[1Nal]FP[dK]([γGlu-γGlu-DOTA])-NH2; disulfide 3-11) |
| 0.001 to 0.01 | CC(=O)N[C@@H](CCC(C)C)C(=O)N[C@@H](Cc1ccc(O)cc1)C(=O)N[C@H]1CSSC[C@@H](C(=O)N[C@@H](Cc2c[nH]c3ccc(F)cc23)C(=O)N[C@@H](Cc2ccccc2)C(=O)N2CCC[C@H]2C(=O)N[C@H](CCCCNC(=O)CN2CCN(CC(=O)O)CCN(CC(=O)O)CCN(CC(=O)O)CC2)C(=O)O)NC(=O)[C@H](Cc2ccc(O)cc2)NC(=O)[C@H](C(C)C)NC(=O)[C@H](CC(=O)O)NC(=O)[C@H](CC2CCOCC2)NC(=O)[C@H](CCCN)NC(=O)CNC(=O)[C@H](C(C)(C)C)NC1=O [compound 312, Ac-hLeu-Y-C-Tbg-G-Orn-ThpA-D-V-Y-C-5FW-F-Pro-dLys(DOTA)-COOH] (Ac-[hLeu]YC[Tle]G[Orn][Ala(4-THP)]DVYC[Trp(5-F)]FP[dK](DOTA)-OH; disulfide 3-11) |
| 0.001 to 0.01 | CCC[C@@H]1NC(=O)[C@H](CC(=O)O)NC(=O)[C@H](Cc2ccc(O)cc2)NC(=O)[C@H](CCCCN)NC(=O)CNC(=O)[C@H](C(C)C)NC(=O)[C@@H](NC(=O)[C@H](Cc2ccc(O)cc2)NC(=O)[C@H](CCC(C)C)NC(C)=O)CSSC[C@@H](C(=O)N[C@@H](Cc2c[nH]c3ccc(F)cc23)C(=O)N[C@@H](Cc2ccccc2)C(=O)N[C@H](C(=O)N[C@H](CCCCNC(=O)CN2CCN(CC(=O)O)CCN(CC(=O)O)CCN(CC(=O)O)CC2)C(N)=O)[C@@H](C)O)NC(=O)[C@H](Cc2ccc(O)cc2)NC1=O [compound 185, Ac-hLeu-Y-C-V-G-K-Y-D-Nva-Y-C-5FW-F-Thr-dLys(DOTA)-CONH2] (Ac-[hLeu]YCVGKYD[Nva]YC[Trp(5-F)]FT[dK](DOTA)-NH2; disulfide 3-11) |
| 0.01 to 0.1 | CCCC[C@@H]1NC(=O)[C@H](C(C)C)NC(=O)[C@H](CC(=O)O)NC(=O)[C@H](Cc2ccncc2)NC(=O)[C@H](CCCCN)NC(=O)CNC(=O)[C@H](C(C)(C)C)NC(=O)[C@@H](NC(=O)[C@H](Cc2ccc(O)cc2)NC(=O)[C@H](CCC(C)C)NC(C)=O)CSSC[C@@H](C(=O)N[C@@H](Cc2cccc3ccccc23)C(=O)N[C@@H](Cc2ccccc2)C(=O)N(C)[C@@H](CO)C(=O)N[C@H](CCCCNC(=O)CN2CCN(CC(=O)O)CCN(CC(=O)O)CCN(CC(=O)O)CC2)C(N)=O)NC1=O [compound 225, Ac-hLeu-Y-C-Tbg-G-K-4PyA-D-V-Nle-C-1Nal-F-NMeSer-dLys(DOTA)-CONH2] (Ac-[hLeu]YC[Tle]GK[4Pal]DV[Nle]C[1Nal]F[NMeS][dK](DOTA)-NH2; disulfide 3-11) |

Same assay, conditions: SPR KD—37° C., 4Ig B7-H3; 37° C. flow cell temperature

| Kd [µM] | SMILES |
| --- | --- |
| 0.01 to 0.1 | CC(=O)N[C@@H](CCC(C)C)C(=O)N[C@@H](Cc1ccc(O)cc1)C(=O)N[C@H]1CSSC[C@@H](C(=O)N[C@@H](Cc2c[nH]c3ccc(F)cc23)C(=O)N[C@@H](Cc2ccccc2)C(=O)N[C@H](C(=O)O)C(C)(C)O)NC(=O)[C@H](Cc2ccc(O)cc2)NC(=O)[C@H](C(C)C)NC(=O)[C@H](CC(=O)O)NC(=O)[C@H](CC2CCOCC2)NC(=O)[C@H](CC2CCN(C(=O)CN3CCN(CC(=O)O)CCN(CC(=O)O)CCN(CC(=O)O)CC3)CC2)NC(=O)CNC(=O)[C@H](C(C)(C)C)NC1=O [compound 342, Ac-hLeu-Y-C-Tbg-G-Pip(DOTA)Ala-ThpA-D-V-Y-C-5FW-F-hydroxyVal-COOH] (Ac-[hLeu]YC[Tle]G[Ala(piperidin-4-yl)](DOTA)[Ala(4-THP)]DVYC[Trp(5-F)]F[Val(3-OH)]-OH; disulfide 3-11) |
| < 0.001 | CC(=O)N[C@@H](CCC(C)C)C(=O)N[C@@H](Cc1ccc(O)cc1)C(=O)N[C@H]1CSSC[C@@H](C(=O)N[C@@H](Cc2c[nH]c3ccc(F)cc23)C(=O)N[C@H](C(=O)N[C@H](C(=O)N[C@H](C)C(=O)O)C(C)(C)O)[C@@H](C)c2ccccc2)NC(=O)[C@H](Cc2ccc(O)cc2)NC(=O)[C@H](C(C)C)NC(=O)[C@H](CC(=O)O)NC(=O)[C@H](CC2CCN(C(=O)CCOCCOCCOCCOCCNC(=O)CN3CCN(CC(=O)O)CCN(CC(=O)O)CCN(CC(=O)O)CC3)CC2)NC(=O)[C@H](CC2CCN(C(C)=O)CC2)NC(=O)CNC(=O)[C@H](C(C)(C)C)NC1=O [compound 513, Ac-hLeu-Y-C-Tbg-G-Pip(Ac)Ala-Pip(PEG4-DOTA)Ala-D-V-Y-C-5FW-[(2S, 3S)beta-Me-Phe]-hydroxyVal-dAla-COOH] (Ac-[hLeu]YC[Tle]G[X15][Ala(piperidin-4-yl)]([PEG4-DOTA])DVYC[Trp(5-F)][X1][Val(3-OH)][dA]-OH; disulfide 3-11) |
